# From ChEMBL document CHEMBL1201862, “PubChem BioAssay data set” (2004)
# Calls of active or inactive are those of the source.
# Key:
# Protein skinhead-1 = molecular target: T1, Protein skinhead-1 (Caenorhabditis elegans, UniProt P34707); type: functional
# T1 sequence (P34707 whole entry): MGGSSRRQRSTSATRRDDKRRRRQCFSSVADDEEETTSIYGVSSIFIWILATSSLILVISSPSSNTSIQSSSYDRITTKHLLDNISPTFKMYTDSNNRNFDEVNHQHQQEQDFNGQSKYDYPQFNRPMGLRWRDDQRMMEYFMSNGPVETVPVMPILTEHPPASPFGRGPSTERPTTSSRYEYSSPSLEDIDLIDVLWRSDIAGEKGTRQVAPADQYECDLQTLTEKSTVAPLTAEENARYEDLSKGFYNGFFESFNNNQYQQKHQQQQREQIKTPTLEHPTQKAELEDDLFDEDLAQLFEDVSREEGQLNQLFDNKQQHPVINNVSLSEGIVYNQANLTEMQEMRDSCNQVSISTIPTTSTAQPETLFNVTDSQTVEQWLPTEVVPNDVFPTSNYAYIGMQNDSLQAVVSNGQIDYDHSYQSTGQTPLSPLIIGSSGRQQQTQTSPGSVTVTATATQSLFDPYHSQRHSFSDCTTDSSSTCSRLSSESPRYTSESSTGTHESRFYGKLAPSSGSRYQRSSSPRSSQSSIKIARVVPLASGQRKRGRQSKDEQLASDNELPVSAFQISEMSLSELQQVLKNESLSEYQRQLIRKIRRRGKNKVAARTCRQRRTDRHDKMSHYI
# [1] = viability of uninfected HEp-2 cells – cell-based, HTS, cytotoxicity control for RSV inhibitor project, dose response (AID 2410); type: functional; conditions: human respiratory syncytial virus
# [2] = viability of HCT116 lacking mutant beta-catenin – cell-based, human colon tumor, dose response (AID 1045); type: functional;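 note: HCT116 colon tumor cells with beta catenin knocked out; cells exposed to compound for 60 hours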
# [3] = molecular target: T2, Rac GTPase-activating protein 1 (Homo sapiens, UniProt Q9H0H5); test: blockers of MgcRacGAP-driven Rac1 GTP hydrolysis – biochemical, ADP Hunter fluorescence, primary and confirmatory, confirmation (AID 624330); type: functional
# T2 sequence (Q9H0H5 whole entry): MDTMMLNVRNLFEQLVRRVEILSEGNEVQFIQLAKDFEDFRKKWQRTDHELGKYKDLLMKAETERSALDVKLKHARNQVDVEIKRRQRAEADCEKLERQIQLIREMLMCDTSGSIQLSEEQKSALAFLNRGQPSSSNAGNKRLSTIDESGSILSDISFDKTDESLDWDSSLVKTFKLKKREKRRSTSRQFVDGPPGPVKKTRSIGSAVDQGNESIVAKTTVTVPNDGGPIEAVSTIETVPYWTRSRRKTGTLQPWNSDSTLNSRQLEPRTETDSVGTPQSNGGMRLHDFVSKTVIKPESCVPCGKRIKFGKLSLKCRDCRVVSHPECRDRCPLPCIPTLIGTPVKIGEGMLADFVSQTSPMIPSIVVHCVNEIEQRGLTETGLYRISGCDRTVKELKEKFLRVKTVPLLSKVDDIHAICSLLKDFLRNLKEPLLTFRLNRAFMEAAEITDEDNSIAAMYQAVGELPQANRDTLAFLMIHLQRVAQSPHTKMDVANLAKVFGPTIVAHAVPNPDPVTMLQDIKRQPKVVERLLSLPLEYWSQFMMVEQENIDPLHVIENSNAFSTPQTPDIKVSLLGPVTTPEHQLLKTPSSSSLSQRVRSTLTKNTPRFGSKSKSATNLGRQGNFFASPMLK
# [4] = viability of PTEN-deleted HCT116 cells – cell-based, HCT116 PTEN knockout, dose response (AID 1047); type: functional;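 note: HCT116 colon tumor cells with PTEN knocked out; cells exposed to compound for 60 hours before readout; potency for loss of cell viability measured by luminescence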
# Genome polyprotein = Genome polyprotein (dengue virus type 2, UniProt P29990); test: flavivirus cap methylation enzyme inhibition – biochemical, confirmation dose response, primary screen (AID 588689); type: functional
# Chain of Genome polyprotein (P29990 2492-3391 limits assumed): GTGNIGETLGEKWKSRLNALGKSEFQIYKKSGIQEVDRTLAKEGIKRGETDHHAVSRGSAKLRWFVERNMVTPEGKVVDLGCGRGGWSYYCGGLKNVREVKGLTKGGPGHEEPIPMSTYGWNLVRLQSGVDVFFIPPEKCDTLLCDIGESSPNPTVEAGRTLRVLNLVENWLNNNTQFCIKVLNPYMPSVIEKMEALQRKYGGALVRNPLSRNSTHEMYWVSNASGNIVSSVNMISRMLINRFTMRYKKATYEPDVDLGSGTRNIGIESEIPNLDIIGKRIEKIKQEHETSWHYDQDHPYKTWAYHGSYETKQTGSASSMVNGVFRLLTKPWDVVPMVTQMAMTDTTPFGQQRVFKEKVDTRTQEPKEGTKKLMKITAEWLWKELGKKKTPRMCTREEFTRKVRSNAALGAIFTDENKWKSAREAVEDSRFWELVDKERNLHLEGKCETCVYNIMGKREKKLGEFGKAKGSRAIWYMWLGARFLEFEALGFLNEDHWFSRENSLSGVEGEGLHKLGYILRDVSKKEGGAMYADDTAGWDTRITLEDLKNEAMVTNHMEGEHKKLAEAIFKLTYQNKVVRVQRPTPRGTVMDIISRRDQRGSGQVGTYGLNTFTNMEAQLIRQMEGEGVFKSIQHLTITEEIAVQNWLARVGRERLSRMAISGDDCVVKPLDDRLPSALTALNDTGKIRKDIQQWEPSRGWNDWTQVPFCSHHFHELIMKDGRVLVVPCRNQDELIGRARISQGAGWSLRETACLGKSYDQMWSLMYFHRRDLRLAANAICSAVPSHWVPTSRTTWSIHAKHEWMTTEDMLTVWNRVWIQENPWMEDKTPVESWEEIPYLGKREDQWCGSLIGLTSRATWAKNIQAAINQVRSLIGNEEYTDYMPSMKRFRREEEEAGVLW
# [5] = molecular target: T3, Short transient receptor potential channel 4 (Mus musculus, UniProt Q9QUQ5); test: calcium entry via TRPC4 opening agents – cell-based, HEK293 TRPC4/mu-opioid, Fluo-4 calcium, dose response (AID 434937); type: functional
# T3 sequence (Q9QUQ5 whole entry): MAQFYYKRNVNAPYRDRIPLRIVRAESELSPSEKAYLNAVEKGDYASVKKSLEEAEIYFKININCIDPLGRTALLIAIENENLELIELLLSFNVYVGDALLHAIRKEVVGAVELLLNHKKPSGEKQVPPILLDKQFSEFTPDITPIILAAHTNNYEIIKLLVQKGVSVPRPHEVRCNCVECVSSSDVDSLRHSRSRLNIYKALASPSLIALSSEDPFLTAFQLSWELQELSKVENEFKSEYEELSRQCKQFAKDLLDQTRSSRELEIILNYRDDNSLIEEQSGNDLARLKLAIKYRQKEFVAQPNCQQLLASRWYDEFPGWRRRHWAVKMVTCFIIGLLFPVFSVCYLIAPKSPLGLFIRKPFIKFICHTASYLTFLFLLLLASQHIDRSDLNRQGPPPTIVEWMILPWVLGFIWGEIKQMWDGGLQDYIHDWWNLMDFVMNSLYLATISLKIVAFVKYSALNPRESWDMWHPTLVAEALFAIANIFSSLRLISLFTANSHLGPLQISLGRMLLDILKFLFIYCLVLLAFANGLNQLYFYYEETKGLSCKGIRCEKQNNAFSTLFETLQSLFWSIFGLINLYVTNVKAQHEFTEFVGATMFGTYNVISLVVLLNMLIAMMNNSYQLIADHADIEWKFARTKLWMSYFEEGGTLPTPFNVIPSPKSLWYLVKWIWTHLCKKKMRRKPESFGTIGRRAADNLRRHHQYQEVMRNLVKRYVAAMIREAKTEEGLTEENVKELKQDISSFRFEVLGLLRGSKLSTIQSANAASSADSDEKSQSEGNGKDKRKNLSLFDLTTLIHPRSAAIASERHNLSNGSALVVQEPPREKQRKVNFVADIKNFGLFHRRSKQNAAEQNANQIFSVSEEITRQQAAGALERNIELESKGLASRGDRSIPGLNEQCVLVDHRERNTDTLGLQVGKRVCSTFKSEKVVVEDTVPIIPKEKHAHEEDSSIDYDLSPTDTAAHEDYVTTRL
# [6] = molecular target: T3, Short transient receptor potential channel 4; test: block of DAMGO-driven TRPC4 calcium entry – cell-based, HEK293 TRPC4/mu-opioid, Fluo-4 calcium, dose response (AID 434942); type: functional;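 note: potency of inhibitors blocking the TRPC4 calcium response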
# [7] = non-specific 3'UTR reporter inhibition in Clone20-Shn3RL – cell-based, Renilla luciferase, cherry-picked, counter-screen for Shn3 inhibitor project, dose response (AID 624133); type: functional
# [8] = loss of viability in HepG2 cells – cell-based, CellTiter-Glo, cherry-picked, cytotoxicity control for Shn3 inhibitor project, dose response (AID 624134); type: functional
# [9] = reduction of Shn3 3'UTR-driven luciferase in osteoblasts – cell-based, Clone20 osteoblasts, firefly luciferase, cherry-picked, dose response (AID 624132); type: functional;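 note: firefly luciferase luminescence from reporter carrying the Shn3 3'UTR in osteoblasts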
# cells = type: functional
# [10] = molecular target: FAD-linked sulfhydryl oxidase ALR (Homo sapiens, UniProt P55789); test: ALR-catalysed DTT oxidation blockers – biochemical, H2O2 detection, luminescence, cherry-pick, dose response (AID 493248)
# Chain of FAD-linked sulfhydryl oxidase ALR (P55789 whole entry, the tested form may be a part): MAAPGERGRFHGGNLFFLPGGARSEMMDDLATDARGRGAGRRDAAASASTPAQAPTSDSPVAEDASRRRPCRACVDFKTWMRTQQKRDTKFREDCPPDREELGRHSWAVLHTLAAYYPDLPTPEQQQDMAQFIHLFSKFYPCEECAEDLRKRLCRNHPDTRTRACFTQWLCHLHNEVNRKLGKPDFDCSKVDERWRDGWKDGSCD
# [11] = molecular target: T4, Carboxy-terminal domain RNA polymerase II polypeptide A small phosphatase 1 (Homo sapiens, UniProt Q9GZU7); test: CTDSP1 inhibitors, concentration-response, biochemical, absorbance readout, ultra-high-throughput screen actives (AID 540297); type: functional
# T4 sequence (Q9GZU7 whole entry): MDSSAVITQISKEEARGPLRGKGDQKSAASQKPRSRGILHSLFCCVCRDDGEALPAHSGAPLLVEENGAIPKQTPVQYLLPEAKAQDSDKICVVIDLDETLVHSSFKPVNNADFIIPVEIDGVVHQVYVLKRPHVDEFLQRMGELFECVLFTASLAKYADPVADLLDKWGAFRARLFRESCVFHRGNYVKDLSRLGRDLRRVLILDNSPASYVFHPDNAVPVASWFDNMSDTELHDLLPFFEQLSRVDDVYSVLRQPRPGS
# [12] = tested on: Streptococcus sp. 'group A'; test: Streptococcus pyogenes SK(-)GAS viability under kanamycin – luminescence, BacTiterGlo, confirmation, counter-screen for streptokinase expression inhibitor project, dose response (AID 1900); type: functional, organism-based
# Streptokinase A = molecular target: T5, Streptokinase A (Streptococcus pyogenes serotype M1, UniProt P10520); test: viability-normalized secreted streptokinase activity reduction – plasminogen activation absorbance, OD405, dose response (AID 1914); type: functional, Streptococcus pyogenes M1 GAS;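 note: secreted streptokinase activity via plasminogen activation per viability signal from cell pellet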
# T5 sequence (P10520 whole entry): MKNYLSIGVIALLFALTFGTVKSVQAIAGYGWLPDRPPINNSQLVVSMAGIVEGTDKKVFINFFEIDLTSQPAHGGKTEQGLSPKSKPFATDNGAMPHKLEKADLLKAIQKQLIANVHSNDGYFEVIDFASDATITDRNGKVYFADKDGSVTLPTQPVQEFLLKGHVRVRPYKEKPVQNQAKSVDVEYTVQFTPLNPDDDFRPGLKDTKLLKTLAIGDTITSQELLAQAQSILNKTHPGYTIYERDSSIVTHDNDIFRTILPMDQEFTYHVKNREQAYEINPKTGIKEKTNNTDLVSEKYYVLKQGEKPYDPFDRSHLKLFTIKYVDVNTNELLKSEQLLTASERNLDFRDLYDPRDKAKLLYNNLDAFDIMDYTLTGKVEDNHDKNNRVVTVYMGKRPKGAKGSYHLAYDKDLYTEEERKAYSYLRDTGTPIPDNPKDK
# Streptococcus = test: GAS UMAA2166 growth inhibition – luminescence, BacTiterGlo, counter-screen for streptokinase expression inhibitor project, dose response (AID 1915); type: functional, organism-based;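 note: potency for reduction of bacterial viability or growth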
# Cytochrome P450 2C9 = Cytochrome P450 2C9 (Homo sapiens, UniProt P11712)
# Chain of Cytochrome P450 2C9 (P11712 whole entry): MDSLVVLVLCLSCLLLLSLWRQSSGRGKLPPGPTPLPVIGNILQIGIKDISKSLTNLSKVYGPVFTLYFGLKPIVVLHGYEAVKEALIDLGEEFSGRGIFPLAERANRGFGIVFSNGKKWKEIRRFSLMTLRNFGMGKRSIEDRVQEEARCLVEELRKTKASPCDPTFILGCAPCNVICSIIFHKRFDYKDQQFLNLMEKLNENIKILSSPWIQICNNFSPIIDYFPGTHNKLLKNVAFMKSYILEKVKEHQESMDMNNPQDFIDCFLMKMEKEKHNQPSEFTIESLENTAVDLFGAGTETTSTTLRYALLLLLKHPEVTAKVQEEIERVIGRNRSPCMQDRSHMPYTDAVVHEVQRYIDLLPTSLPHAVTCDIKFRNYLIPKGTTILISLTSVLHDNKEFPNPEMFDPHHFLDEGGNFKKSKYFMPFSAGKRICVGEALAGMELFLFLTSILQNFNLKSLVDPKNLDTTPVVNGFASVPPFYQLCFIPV
# [13] = Trypanosoma cruzi growth suppression in host cells – NIH3T3 host cells, beta-gal luminescence, confirmation (AID 2044); type: functional, cell-based;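 note: intracellular parasites grown in NIH/3T3 mouse fibroblasts as host cells; luminescent beta-galactosidase reporter signal from transgenic T. cruzi replicating inside host cells; inhibitors lower the luminescence signal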
# [14] = NIH3T3 cell viability loss – ATP luminescence, mouse fibroblasts, counter-screen, dose response (AID 2010); type: functional, cell-based;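 note: cells exposed to compound for about 90 hours before reading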
smiles,measurement,setting,value
Cc1onc(-c2ccccc2)c1C(=O)Nc1nc2c(s1)C(=O)CC(C)(C)C2,IC50,Protein skinhead-1,> 100 µM (inactive)
Cc1ccc([N+](=O)[O-])cc1/N=C(\c1cccc(Br)c1)N1CCOCC1,CC50,[1],40.2 µM (active)
O=C1CCCCCN1Sc1ccccc1,EC50,[2],16.9 µM (active)
same,IC50,[3],87.6 µM (active)
same,EC50,[4],20.2 µM (active)
Cc1c(Br)c(O)c(Br)c2sc(=O)oc12,IC50,Genome polyprotein,62.3 µM (active)
CCOC(=O)C1(CCc2ccccc2)CCN(Cc2ccc(O)cc2)CC1,EC50,[5],5.31 µM (active)
same,EC50,[6],2.99 µM (active)
C=C1C(=O)OC2C=C(CO)C3OC3C3OC3(C)CC(OC(=O)/C(=C/C)COC(C)=O)C12 (stereo not given),AC50,[7],9.84 µM (active)
same,AC50,[8],32.2 µM (active)
same,AC50,[9],5.89 µM (active)
CCN(CC)CCC(c1cc(OC)c(OC)c(OC)c1)c1c(OC)cc(OC)c2c(C)cc(=O)oc12 (stereo not given),IC50,Protein skinhead-1,> 100 µM (inactive)
CCO/C(O)=C/c1nc2ccccc2oc1=O,IC50,cells,2.88 µM (active)
COC(=O)COc1ccc(S(=O)(=O)N2CCCCCC2)cc1,IC50,cells,33.5 µM (active)
O=C(NC(=S)Nc1ccc(CN2CCCCC2)cc1)c1cc2ccccc2o1,IC50,Protein skinhead-1,32.2 µM (active)
COc1ccc(-n2c(C)cc(C(=O)CSc3nnc(-c4cccs4)o3)c2C)cc1,AC50,[7],5.62 µM (active)
same,AC50,[8],48.6 µM (active)
same,AC50,[9],5.03 µM (active)
Cc1[nH]c2ccccc2c1C(=O)C(C)OC(=O)c1ccc([N+](=O)[O-])o1 (stereo not given),IC50,cells,< 0.1 µM (active)
Cc1ccc(-c2csc(N=C(N)N)n2)cc1,CC50,[1],46.4 µM (active)
same,AC50,[10],1.05 µM (active)
Cc1ccn2nc(S(=O)(=O)Nc3c(F)cccc3F)nc2n1,IC50,cells,11.2 µM (active)
Cc1cc(=O)c2c(o1)C(=O)c1occc1C2=O,IC50,Genome polyprotein,62.4 µM (active)
CCOc1ccccc1C(=O)Nc1ccc(-n2nncc2C(C)(C)C)cc1,IC50,Protein skinhead-1,> 100 µM (inactive)
COc1cc(/C=C2\C(=N)N3N=C(S(C)(=O)=O)SC3=NC2=O)ccc1OC(=O)c1ccco1,IC50,[11],4.55 µM (active)
COc1ccc(CCNC(=O)c2cc(-c3ccc(C)c(C)c3O)[nH]n2)cc1OC,CC50,[1],> 50 µM (active)
CC(=O)/N=C1\SC2CS(=O)(=O)CC2N1c1cccc(Cl)c1Cl (stereo not given),IC50,Protein skinhead-1,> 100 µM (inactive)
Cc1ccc(Sc2cc(C(=O)NCCN(C)C)c3ccccc3n2)cc1,EC50,[5],2.66 µM (active)
Cc1ccc(-c2noc(CCCC(=O)Nc3cccnc3)n2)cc1,IC50,cells,37.4 µM (active)
O=C(Oc1ccc(/N=C2\C(=O)c3ccccc3C(O)=C2Cl)cc1)c1ccc([N+](=O)[O-])cc1,EC50,[12],20.7 µM (active)
same,EC50,[2],4.97 µM (active)
same,EC50,Streptokinase A,> 150 µM (not active)
same,EC50,Streptococcus,44.1 µM (active)
same,EC50,[4],9.05 µM (active)
CCC(C)(C)c1nnc(NC(=O)CCC2CCCCC2)s1,IC50,Protein skinhead-1,> 100 µM (inactive)
CN(C)/C=C1\C(=O)N(c2ccc([N+](=O)[O-])cc2)N=C1c1ccccc1,CC50,[1],31.8 µM (active)
same,EC50,[5],10.6 µM (active)
same,EC50,[6],15 µM (active)
COC(=O)c1ccc(CCc2cc(O)ccc2O)cc1,AC50,[7],14.5 µM (active)
same,AC50,Cytochrome P450 2C9,7.94 µM (inconclusive)
same,AC50,[8],> 70 µM (inactive)
same,AC50,[9],3.14 µM (active)
O=C(O)c1cc(S(=O)(=O)N2CCN(S(=O)(=O)c3ccc4ccccc4c3)CC2)ccc1Br,IC50,[11],6.22 µM (active)
Cc1cc(C)c(C(=O)COC(=O)c2ccc([N+](=O)[O-])o2)cc1C,IC50,cells,1 µM (active)
CC1(C)CC(=O)C(=Cc2cn(CCC#N)nc2-c2ccc(Cl)cc2)C(=O)C1,IC50,Genome polyprotein,31.8 µM (active)
CCN(CC)C(=O)Oc1ccc2cc(Br)ccc2c1,CC50,[1],37 µM (active)
CC(=O)NC(=S)Nc1cccc2c(C)cc(C)nc12,CC50,[1],> 50 µM (active)
CC1N(C)c2cc(NC(=O)c3cccs3)c(P(=O)(Nc3ccc([N+](=O)[O-])cc3)N3CCOCC3)cc2C1(C)C (stereo not given),CC50,[1],32.1 µM (active)
same,EC50,[13],1.98 µM (active)
same,EC50,[14],> 30 µM (not active)
